Test: Aqueous solubility determination at room temperature
Assay type: physicochemical
Details: water; for log Sw (mg/ml) / Sw (log) Experimental: aqueous solubility of the hydrate, room temperature; for Sw (log) Experimental: value in brackets

Row | solubility thermodynamic at 48 h (thermodynamic from solid) | Structure (SMILES) | log Sw (mg/ml) | Sw (log) Experimental
1 | 0.12 mg/mL | Sc1ncnc2nc[nH]c12 [Mercaptopurine, mercaptopurine monohydrate] | −0.93 log mg/ml | −0.93 log mg/ml
2 |  | O=c1c(O)c(-c2cc(O)c(O)c(O)c2)oc2cc(O)cc(O)c12 [Myricetin, Myricetin (MYR) monohydrate] | −3.19 log mg/ml | −3.19 log mg/ml

Source: publication PMC5026118 (Journal of pharmaceutical sciences, 2016)
